Results as given in patent US9492450B2, “Inhibition of dynamin related protein 1 to promote cell death” (University of Pittsburgh—of the Commonwealth System of …, priority 2011, dated 2016).

Columns and labels:
MDA-MB-231 cells [1] = test: DNA content flow cytometry (propidium iodide): G2/M arrest and aneuploidy; type: cell-based, human; settings: 5 μg/ml oligomycin, 5 μM FCCP or 10 μg/ml antimycin A, 24 h
MDA-MB-231 cells [2] = test: Caspase-3/7 activity assay (apoptosis); type: cell-based, human; settings: 20 h
Procedure: FIG. 18. […] Multidrug-resistant MDA-MB-231 breast carcinoma cells were treated with increasing doses of mdivi-1 alone, a series of anticancer drugs alone, or the combination of increasing doses of anticancer drugs with 20 μM mdivi-1 for 20 h. Apoptosis was determined by measuring the activity of caspase-3/7. The drugs tested were platinum agent, cisplatin; antifolate agent, methotrexate; topoisomerase II inhibitor, etoposide; cytidine analog, gemcitabine; pyrimidine analog, 5-FU; alkylating agents, cyclophosphamide, MMS and MNNG; DNA crosslinking agent, MMC; DNA intercalating agent, doxorubicin; and antimitotic drug, paclitaxel.
FIG. 21A-F. Mdivi-1 enhances cisplatin sensitivity through Drp1-independent mechanisms. (A) Confirmation of the depletion of Drp1 in Drp1 knockout SV40-transformed MEF cells by western blot. (B) Drp1 wild-type (Drp1+/+) and knockout (Drp1−/−) MEF cells were treated as indicated for 20 h, and the number of apoptotic cells was determined by antibody recognizing cleaved caspase-3. […] (C) Drp1 wild-type and knockout MEF cells were treated with mdivi-1 for 24 h, and the cell number were determined by CyQuant assay. (D) OCR was measured after 1 h treatment of Drp1 wild-type and knockout MEF cells with DMSO or mdivi-1. (E) The combination effect of cisplatin with four analogs of mdivi-1. […]

Drp1 = settings: as said in Cassidy-Stone et al., Dev Cell 14:193-204; cited from earlier work
[3] = Synergy with cisplatin, experiments not described

## antimycin A
MDA-MB-231 cells [1]
  G2/M cell cycle arrest and aneuploidy: did not induce G2/M cell cycle arrest and aneuploidy

## CC[C@H]1/C=C/C=C/C[C@@H](C)[C@H](O)[C@@](C)(O)C(=O)[C@@H](C)[C@H](O)[C@@H](C)C(=O)[C@@H](C)[C@H](O)[C@@H](C)/C=C/C(=O)O[C@@H]2[C@H](C)[C@H](CC1)O[C@]1(CC[C@H](C)[C@H](C[C@@H](C)O)O1)[C@H]2C [oligomycin]
MDA-MB-231 cells [1]
  G2/M cell cycle arrest and aneuploidy: did not induce G2/M cell cycle arrest and aneuploidy

## N#CC(C#N)=NNc1ccc(OC(F)(F)F)cc1 [FCCP]
MDA-MB-231 cells [1]
  G2/M cell cycle arrest and aneuploidy: did not induce G2/M cell cycle arrest and aneuploidy

## COc1cc(-n2c(SC)nc3ccccc3c2=O)c(Cl)cc1Cl [compound F]
MDA-MB-231 cells [2]; 20 μM of agents alone or in combination with cisplatin
  combination effect with cisplatin in enhancing apoptosis: abolished the synergism with cisplatin
Drp1
  efficacy in inhibiting Drp1 relative to mdivi-1: poor efficacy

## C[C@]1(c2nc3c(C(N)=O)cccc3[nH]2)CCCN1 [ABT-888]
MDA-MB-231 cells [2]; series doses
  apoptosis, alone and in combination with cisplatin: resistant

## O=C(N/N=C/c1ccc(O)c(O)c1)c1cc2ccccc2cc1O [Dynasore]
[3]
  synergistic effect with cisplatin: have not demonstrated a synergistic effect
